The record followed here is patent US9725469B2, “Amino-oxazine and amino-dihydrothiazine compounds as beta-secretase modulators and methods of use” (Amgen Inc., priority 2012, dated 2017).

By IC50 is commonly meant the concentration that inhibits the measured activity by half.

In one experiment the target is T1, Cathepsin D (Homo sapiens, UniProt P07339).
T1 construct: made in house; host or cells: CHO cells
Kind of experiment: In vitro enzymatic Cat D (Cathepsin D) FRET assay. As to conditions: average IC50, pH 3.5. Type of experiment: biochemical. As for the experimental part:
In Vitro Enzymatic Cat D (Cathepsin D) FRET (Fluorescence Resonance Energy Transfer) Assay
Recombinant CathepsinD was expressed in CHO cells. The assay buffer for CathepsinD is 0.05 M citrate pH 3.5, 10% DMSO final, 5 mM CHAPS. The CathepsinD enzyme (9 nM) is pre-incubated for one hour with inhibitors, typically in about 1 uL of DMSO according to a serial dilution, is added thereto. The assays are effectively started by the addition of different FRET substrates (20 nM for CathepsinD) and the combination is incubated for one hour. The FRET assay is terminated with by addition of Tris buffer, which raises the pH to neutrality, and the fluorescence is determined. The FRET substrate is a peptide with commercially available fluorophore and quencher, on opposite sides of the BACE cleavage site. The CathepsinD substrate peptide sequence is based on sequence #1 of Table 1 from Gulnik et al. FEBS Letters v413 p 379-384 1997. Proteolytic cleavage of the FRET substrate releases quenching of fluorescence (CathepsinD excitation 500 nm and emission 580 nm). […]

Experiment [1] deals with Aβ40 in conditioned medium of cells stably expressing Amyloid Precursor Protein (APP). Kind of experiment: In vitro BACE cell-based assay (HEK cell assay, Aβ40 sandwich ELISA). As to conditions: average IC50, Aβ40, 24 h incubation. Here is the method:
In Vitro BACE Cell-Based Assay
The cell-based assay measures inhibition or reduction of Aβ40 in conditioned medium of test compound treated cells expressing amyloid precursor protein.
Cells stably expressing Amyloid Precursor Protein (APP) were plated at a density of 40K cells/well in 96 well plates (Costar). The cells were cultivated for 24 hours at 37° C. and 5% CO2 in DMEM supplemented with 10% FBS. The test compounds were then added to cells in 10-point dose response concentrations with the starting concentration being either 100 μM or 10 μM. The compounds were diluted from stock solutions in DMSO and the final DMSO concentration of the test compounds on cells was 0.1%. After 24 h of incubation with the test compounds the supernatant conditioned media was collected and the Aβ 40 levels were determined using a sandwich ELISA. The IC50 of the compound was calculated from the percent of control or percent inhibition of Aβ 40 as a function of the concentration of the test compound.
The sandwich ELISA to detect Aβ 40 was performed in 96 well microtiter plates, which were pre-treated with goat anti-rabbit IgG (Pierce). The capture and detecting antibody pair that were used to detect Aβ 40 from cell supernatants were affinity purified pAb40 (Biosource) and biotinylated 6E10 (Signet Labs Inc.), respectively. The optimal concentration for the pAb40 antibody was 3 μg/ml in Superblock/TBS (Pierce) that was supplemented with 0.05% Tween 20 (Sigma). Optimal concentration for the detection antibody 6E10-biotinylated was 0.5 μg/ml in Superblock/TBS (Pierce) that had been supplemented with 2% normal goat serum and 2% normal mouse serum.
Cellular supernatants were incubated with the capture antibody for 3 h at 4° C., followed by 3 wash steps in TBS-tween (0.05%). The detecting antibody incubation was for 2 h at 4° C., again followed by the wash steps as described previously. The final readout of the ELISA is Time-Resolved Fluorescence (counts per minute) using Delfia reagents Streptavidin-Europium and Enhancement solutions (Perkin Elmer) and the Victor 2 multilabel counter (Perkin Elmer).
In general terms: An ELISA detects its analyte on a solid surface through an enzyme-linked reagent.

In experiment [2] the target is BACE 1 (beta secretase enzyme) (Homo sapiens, UniProt P56817). The experiment can be described thus: In vitro enzymatic BACE FRET assay. The experiment is classed as biochemical. The settings on record: average IC50, pH 4.2. As for the experimental part: In Vitro Enzymatic BACE FRET (Fluorescence Resonance Energy Transfer) Assay
The assay buffer used in this screen is 0.05 M acetate, pH 4.2, 10% DMSO final, 100 uM genapol (which is a nonionic detergent, below its Critical Micelle Concentration). The beta secretase enzyme (0.2 nM) is pre-incubated for one hour with inhibitors, typically in about 1 uL of DMSO according to a serial dilution, are added thereto. This assay is effectively started by the addition of FRET substrate (50 nM) and the combination is incubated for one hour. The FRET assay is terminated with by addition of Tris buffer, which raises the pH to neutrality, and the fluorescence is determined. The FRET substrate is a peptide with commercially available fluorophore and quencher, on opposite sides of the BACE cleavage site. Proteolytic cleavage of the FRET substrate releases quenching of fluorescence (excitation […] and […]).

T1 sequence (P07339 65-412, species assumed): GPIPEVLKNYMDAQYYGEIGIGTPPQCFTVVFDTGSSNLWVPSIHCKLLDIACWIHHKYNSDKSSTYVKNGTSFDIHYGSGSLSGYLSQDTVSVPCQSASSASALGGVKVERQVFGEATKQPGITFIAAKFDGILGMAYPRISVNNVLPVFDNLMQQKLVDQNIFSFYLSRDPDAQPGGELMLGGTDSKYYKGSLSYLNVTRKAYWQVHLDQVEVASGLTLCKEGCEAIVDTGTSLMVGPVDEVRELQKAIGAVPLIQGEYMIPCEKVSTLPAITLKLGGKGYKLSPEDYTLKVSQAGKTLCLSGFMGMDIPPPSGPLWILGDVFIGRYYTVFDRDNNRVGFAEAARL
Sequence of BACE 1 (beta secretase enzyme) (P56817 46-501): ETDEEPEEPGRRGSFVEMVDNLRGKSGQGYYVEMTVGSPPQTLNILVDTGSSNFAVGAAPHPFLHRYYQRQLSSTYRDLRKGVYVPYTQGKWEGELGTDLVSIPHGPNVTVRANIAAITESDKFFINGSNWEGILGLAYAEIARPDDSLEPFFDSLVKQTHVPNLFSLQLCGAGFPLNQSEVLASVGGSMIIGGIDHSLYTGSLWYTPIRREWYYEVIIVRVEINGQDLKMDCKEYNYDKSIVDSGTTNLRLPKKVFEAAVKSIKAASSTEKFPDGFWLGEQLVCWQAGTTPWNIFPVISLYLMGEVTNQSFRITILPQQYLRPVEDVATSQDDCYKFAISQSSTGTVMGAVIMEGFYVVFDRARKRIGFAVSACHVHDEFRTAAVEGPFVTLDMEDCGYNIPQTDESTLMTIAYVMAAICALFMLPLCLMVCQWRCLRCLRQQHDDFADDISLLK

Regarding `COc1cnc2c(Nc3ccc4c(c3)[C@@]3(CCOC(N)=N3)c3cc(C5CC5)ncc3O4)nccc2n1` [Example 42, (5S)-3-cyclopropyl-N~7~-(2-methoxypyrido[3,4-b]pyrazin-5-yl)-5′,6′-dihydrospiro[chromeno[2,3-c]pyridine-5,4′-[1,3]oxazine]-2′,7-diamine], the concentration for half-maximal inhibition (IC50) at Cathepsin D was 400000 nM; in experiment [1] (Homo sapiens, HEK293), 2.6 nM; in experiment [2], 6.9 nM.

On to `COc1cnc2c(Nc3ccc4c(c3)[C@@]3(CCSC(N)=N3)c3cc(C5=CCCOC5)nc(F)c3O4)nccc2c1` [Example 31, (5S)-3-(5,6-dihydro-2H-pyran-3-yl)-1-fluoro-N~7~-(3-methoxy-1,7-naphthyridin-8-yl)-5′,6′-dihydrospiro[chromeno[2,3-c]pyridine-5,4′-[1,3]thiazine]-2′,7-diamine], for which the IC50 on Cathepsin D amounted to 313000 nM; in experiment [1] (Homo sapiens, HEK293) it was 5.3 nM; in experiment [2] it was 4.3 nM.

`COc1cnc2c(Nc3ccc4c(c3)[C@@]3(CCSC(N)=N3)c3cc(-c5cncc(F)c5)nc(F)c3O4)nccc2c1` [Example 41, (5S)-1-fluoro-3-(5-fluoro-3-pyridinyl)-N~7~-(3-methoxy-1,7-naphthyridin-8-yl)-5′,6′-dihydrospiro[chromeno[2,3-c]pyridine-5,4′-[1,3]thiazine]-2′,7-diamine]: the concentration for half-maximal inhibition (IC50) is 400000 nM on Cathepsin D; 16 nM in experiment [1] (Homo sapiens, HEK293); 3.2 nM in experiment [2].

For the compound `COc1cnc2c(Nc3ccc4c(c3)[C@@]3(CCSC(N)=N3)c3cc(-c5ccnc(F)c5)nc(F)c3O4)nccc2c1` [Example 39, (5S)-1-fluoro-3-(2-fluoro-4-pyridinyl)-N~7~-(3-methoxy-1,7-naphthyridin-8-yl)-5′,6′-dihydrospiro[chromeno[2,3-c]pyridine-5,4′-[1,3]thiazine]-2′,7-diamine], the IC50 on Cathepsin D was found to be 338000 nM; in experiment [1] (Homo sapiens, HEK293) it was 12.3 nM; in experiment [2] it was 3.2 nM.

Regarding `COc1cnc2c(Nc3ccc4c(c3)[C@@]3(CCOC(N)=N3)c3cc(C5=CCOCC5)ncc3O4)ccnc2c1` [Example 33], the IC50 in experiment [1] is 0.4 nM; in experiment [2], 19.4 nM.

On to `COc1cnc2c(Nc3ccc4c(c3)[C@@]3(CCOC(N)=N3)c3cc(Cl)nc(F)c3O4)nccc2c1` [Example 35, (5S)-3-chloro-1-fluoro-N-~7~-(3-methoxy-1,7-naphthyridin-8-yl)-5′,6′-dihydrospiro[chromeno[2,3-c]pyridine-5,4′-[1,3]oxazine]-2′,7-diamine], for which the IC50 at Cathepsin D came to 400000 nM; in experiment [1] (Homo sapiens, HEK293) it was 35.3 nM; in experiment [2] it was 97.2 nM.

For the compound `Cc1nc2c(Nc3ccc4c(c3)[C@@]3(CCOC(N)=N3)c3cc(C5=CCOCC5)ncc3O4)nccc2s1` [Example 44, (5S)-3-(3,6-dihydro-2H-pyran-4-yl)-N~7~-(2-methyl[1,3]thiazolo[4,5-c]pyridin-4-yl)-5′,6′-dihydrospiro[chromeno[2,3-c]pyridine-5,4′-[1,3]oxazine]-2′,7-diamine], the half-inhibitory concentration (IC50) on Cathepsin D is 400000 nM; in experiment [1] (Homo sapiens, HEK293), 4.1 nM; in experiment [2], 5.3 nM.

Consider `COc1cnc2c(Nc3ccc4c(c3)[C@@]3(CCSC(N)=N3)c3cc(-c5ccnc(OC(C)C)c5)nc(F)c3O4)nccc2c1` [Example 40, (5S)-1-fluoro-N~7~-(3-methoxy-1,7-naphthyridin-8-yl)-3-(2-(1-methylethoxy)-4-pyridinyl)-5′,6′-dihydrospiro[chromeno[2,3-c]pyridine-5,4′-[1,3]thiazine]-2′,7-diamine], for which the IC50 at Cathepsin D was 400000 nM; in experiment [1] (Homo sapiens, HEK293), 138 nM; in experiment [2] it was 15.6 nM.

For the compound `COc1cnc2c(Nc3ccc4c(c3)[C@@]3(CCOC(N)=N3)c3cc(C5=CCOCC5)ncc3O4)nccc2c1` [Example 43, (5S)-3-(3,6-dihydro-2H-pyran-4-yl)-N~7~-(3-methoxy-1,7-naphthyridin-8-yl)-5′,6′-dihydrospiro[chromeno[2,3-c]pyridine-5,4′-[1,3]oxazine]-2′,7-diamine], the IC50 at Cathepsin D came to 400000 nM; in experiment [1] (Homo sapiens, HEK293), 2.6 nM; in experiment [2] it was 14.8 nM.
